Results as given in US20260256797A1, “NOVEL INDENONE DERIVATIVES AND USES THEREOF” (AMYLOID SOLUTION INC., priority 2022, published 2026).

Columns and labels:
[1] = target: T1, Aβ1-42 (Homo sapiens, UniProt P05067); test: Amyloid-beta (Aβ) disaggregation test by thioflavin-T assay; format: biochemical; conditions: 50 μM Aβ1-42 aggregated 24 hours, then compound 0-500 μM for 48 hours at 37° C.
T1 construct: dissolving Aβ1-42 or Tau-RD3 (Tau repeat domain 3) monomer in DMSO
Procedure: (§1) Each compound was dissolved in DMSO to a concentration of 10 mM. Subsequently, the compound was diluted with 6% DMSO (in DW) and used.
(§2) Specifically, amyloid-beta and tau solutions were prepared by dissolving Aβ1-42 or Tau-RD3 (Tau repeat domain 3) monomer in DMSO to a concentration of 10 mM. Thereafter, each solution was diluted with DW to a concentration of 100 μM and stored on ice. Meanwhile, thioflavin-T was dissolved in 50 mM glycine buffer (pH 8.5) to a concentration of 5 mM. Thereafter, the resulting solution was diluted with 50 mM glycine buffer (pH 8.5) to a concentration of 5 μM and stored in a dark room while light was blocked.
(§3) Each of the amyloid-beta and tau solutions prepared according to Experimental Example 1.1 was added to a 1.5 mL microcentrifuge tube to a concentration of 50 μM or 35 µM, and then a reaction was allowed to occur therebetween at 37° C. for 24 hours. Each of the 1.5 mL microcentrifuge tubes in which amyloid-beta aggregation and tau aggregation had been completed was treated with each compound at a concentrated of 500 μM to 0 μM through serial dilution, and then a further reaction was allowed to occur therebetween at 37° C. for 48 hours. 25 μL of the reaction solution in which the reaction had been completed was added to each well of a 96-well plate for fluorescence analysis, and 75 μL of the previously prepared thioflavin-T solution was added to each well. After a reaction was allowed to occur at room temperature in the dark for 5 minutes, fluorescence values were measured at excitation 450 nm and emission 485 nm by using a multi-mode microplate reader.
(§4) The fluorescence value of a group (control) treated with amyloid-beta or tau alone, followed by aggregation for 72 hours was converted into a percentage value and expressed as 100, and amyloid-beta and tau aggregates, in which aggregation had been completed upon reaction for 24 hours, were treated with each compound at each concentration and a further reaction was allowed to occur therebetween for 48 hours, and then fluorescence values thereof were measured and converted into relative values. The results thereof are illustrated in FIGS. 1 to 6 and 7 to 12. In addition, EC50 values of the compounds of the present disclosure for amyloid-beta and tau, respectively are summarized in Table 1.

[2] = target: Tau-RD3 (Tau repeat domain 3) (Homo sapiens, UniProt P10636); test: Tau disaggregation test by thioflavin-T assay; format: biochemical; conditions: 35 μM Tau-RD3 aggregated 24 hours, then compound 0-500 μM for 48 hours at 37° C.
Sequence of Tau-RD3 (Tau repeat domain 3) (P10636 623-653 limits assumed): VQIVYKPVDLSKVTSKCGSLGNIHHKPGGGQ
Procedure: as §1, §2, §3, §4

T1 sequence (P05067 672-713 limits assumed): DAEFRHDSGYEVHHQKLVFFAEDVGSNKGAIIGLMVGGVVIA

SMILES	EC50 [1] [µM]	EC50 [2] [µM]
Cc1ncsc1C1=C(c2ccccc2CC#N)C(=O)c2cc(OCCCc3ccccc3)ccc21 [Compound 2, 2-(2-(3-(4-methylthiazol-5-yl)-1-oxo-6-(3-phenylpropoxy)-1H-inden-2-yl)phenyl) acetonitrile]	92.9	321
Cc1ncsc1C1=C(Br)C(=O)c2cc(OCCCc3ccccc3)ccc21 [Compound 3, 2-bromo-3-(4-methylthiazol-5-yl)-6-(3-phenylpropoxy)-1H-inden-1-one]	3.8	8.5
Cc1scnc1C1=C(c2cccnc2)C(=O)c2cc(OCCCN3CCOCC3)ccc21 [Compound 4, 3-(5-methylthiazol-4-yl)-6-(3-morpholinopropoxy)-2-(pyridin-3-yl)-1H-inden-1-one]	75	156
Cc1scnc1C1=C(Br)C(=O)c2cc(OCCCN3CCOCC3)ccc21 [Compound 5, 2-bromo-3-(5-methylthiazol-4-yl)-6-(3-morpholinopropoxy)-1H-inden-1-one]	65.6	344
O=C1C(c2cccnc2)=C(c2cccs2)c2ccc(OCCCc3ccccc3)cc21 [Compound 6, 6-(3-phenylpropoxy)-2-(pyridin-3-yl)-3-(thiophen-2-yl)-1H-inden-1-one]	3.2	16.2
O=C1C(c2cccnc2)=C(c2ccoc2)c2ccc(OCCCc3ccccc3)cc21 [Compound 9, 3-(furan-3-yl)-6-(3-phenylpropoxy)-2-(pyridin-3-yl)-1H-inden-1-one]	19.1	53.6
Cc1ncsc1C1=C(c2ccccc2)C(=O)c2cc(OCCCc3ccccc3)ccc21 [Compound 10, 3-(4-methylthiazol-5-yl)-2-phenyl-6-(3-phenylpropoxy)-1H-inden-1-one]	5.6	350
Cc1ncsc1C1=C(c2cccs2)C(=O)c2cc(OCCCc3ccccc3)ccc21 [Compound 12, 3-(4-methylthiazol-5-yl)-6-(3-phenylpropoxy)-2-(thiophen-2-yl)-1H-inden-1-one]	4.3	154
Cc1ncsc1C1=C(c2cccnc2)C(=O)c2cc(OCCCc3ccncc3)ccc21 [Compound 13, 3-(4-methylthiazol-5-yl)-2-(pyridin-3-yl)-6-(3-(pyridin-4-yl)propoxy)-1H-inden-1-one]	110	1.5
Cc1ncsc1C1=C(c2cccnc2)C(=O)c2cc(OCCCCc3ccccc3)ccc21 [Compound 15, 3-(4-methylthiazol-5-yl)-6-(4-phenylbutoxy)-2-(pyridin-3-yl)-1H-inden-1-one]	2.5	59.8

Other lines, results leading:

EC50 [1] [µM]	EC50 [2] [µM]	SMILES
8.2	19.2	Cc1ncsc1C1=C(c2cccnc2)C(=O)c2cc(OCCCc3ccccc3)ccc21 [Compound 1, 3-(4-methylthiazol-5-yl)-6-(3-phenylpropoxy)-2-(pyridin-3-yl)-1H-inden-1-one]
1.9	4.2	Cc1scnc1C1=C(c2cccnc2)C(=O)c2cc(OCCCc3ccccc3)ccc21 [Compound 8, 3-(5-methylthiazol-4-yl)-6-(3-phenylpropoxy)-2-(pyridin-3-yl)-1H-inden-1-one]
177	> 500	Cc1ncsc1C1=C(c2cccnc2)C(=O)c2cc(OCCc3ccccc3)ccc21 [Compound 14, 3-(4-methylthiazol-5-yl)-6-phenethoxy-2-(pyridin-3-yl)-1H-inden-1-one]
12.5	96.5	Cc1ncsc1C1=C(c2cccnc2)C(=O)c2cc(OCOCc3ccccc3)ccc21 [Compound 16, 6-((benzyloxy)methoxy)-3-(4-methylthiazol-5-yl)-2-(pyridin-3-yl)-1H-inden-1-one]
5.7	19.2	Cc1ncsc1C1=C(c2cccnc2)C(=O)c2cc(OCCOc3ccccc3)ccc21 [Compound 17, 3-(4-methylthiazol-5-yl)-6-(2-phenoxyethoxy)-2-(pyridin-3-yl)-1H-inden-1-one]
